# Source: PMC4907692, “Engineering vanilloid-sensitivity into the rat TRPV2 channel” (eLife, 2016)
# Columns and labels:
# [1] = target: T1, 1D4-tagged TRPV2 QM (Rattus norvegicus, UniProt Q9WUD2, F472S/L507M/L510T/Q530E); assay: 3H-RTx binding to yeast membranes containing 1D4-tagged TRPV2 QM
# T1 construct: made in house; host or cells: S. cerevisiae BJ5457, isolated membranes
# T1 sequence (Q9WUD2 1-761 F472S/L507M/L510T/Q530E): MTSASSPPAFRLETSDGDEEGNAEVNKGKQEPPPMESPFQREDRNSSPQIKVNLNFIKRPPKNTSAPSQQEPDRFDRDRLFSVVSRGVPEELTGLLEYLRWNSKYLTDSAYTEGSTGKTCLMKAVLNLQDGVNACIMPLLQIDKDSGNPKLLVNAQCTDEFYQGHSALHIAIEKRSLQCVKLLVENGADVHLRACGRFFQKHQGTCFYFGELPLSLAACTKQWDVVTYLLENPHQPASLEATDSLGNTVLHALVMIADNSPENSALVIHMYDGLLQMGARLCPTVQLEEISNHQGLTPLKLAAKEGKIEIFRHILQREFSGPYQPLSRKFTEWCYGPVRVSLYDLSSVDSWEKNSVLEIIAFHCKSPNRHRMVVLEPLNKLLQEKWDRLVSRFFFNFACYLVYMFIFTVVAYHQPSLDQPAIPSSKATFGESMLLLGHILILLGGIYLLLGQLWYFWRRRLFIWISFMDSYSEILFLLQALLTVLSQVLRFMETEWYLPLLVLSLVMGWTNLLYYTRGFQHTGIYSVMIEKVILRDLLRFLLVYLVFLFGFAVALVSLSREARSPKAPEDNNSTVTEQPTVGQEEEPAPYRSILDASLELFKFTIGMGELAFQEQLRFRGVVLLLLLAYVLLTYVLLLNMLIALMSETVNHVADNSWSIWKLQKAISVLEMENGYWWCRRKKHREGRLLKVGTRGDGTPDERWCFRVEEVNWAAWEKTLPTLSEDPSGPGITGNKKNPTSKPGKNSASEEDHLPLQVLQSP
# Excerpt: To examine the strength of RTx binding to the TRPV2 channel, we undertook binding assays after expressing 1D4-tagged TRPV2 and TRPV2 QM in S. cerevisiae and isolating yeast membranes, similar to the experiments described above with TRPV1 (Figure 2). […] To examine the relative importance of the four residues for mediating RTx sensitivity in the TRPV2 QM, we constructed triple mutants and evaluated their sensitivity to RTx electrophysiologically.
# The full-length TRPV1 and TRPV2 channels with 1D4 affinity tags ([…]) on their C-termini were cloned into the YEpHIS vector and expressed in the BJ5457 strain of S. cerevisiae using the strong constitutively active PMA1 promoter, as previously described ([Moiseenkova-Bell et al., 2008]). After 48 hr of expression at 30°C in YPD media, cells were harvested by centrifugation and re-suspended in PBS buffer, supplemented with complete protease inhibitor cocktail (Roche, Indianapolis, IN) and 4-amidinophenylmethanesulfonyl fluoride hydrochloride (APMSF) (Sigma-Aldrich, St. Louis, MO). Cells were broken by passing through an Avestin homogenizer at the pressure of 35 kpsi, cell lysate was cleared by centrifugation at 8,000 g for 15 min and membranes were isolated by ultracentrifugation at 190,000 g for 1 hr. […]
# S. cerevisiae cells overexpressing TRPV1 constructs to be used in ligand binding assays on intact cells (Figure 1E,F) were grown as for small scale expression trials. 24 hr after protein induction cells were spun down at 4000g, the supernatant was removed and the pellet resuspended in 1x PBS, normalizing OD600 to 75 for each sample, and aliquoted for storage at -80°C. ^3H-RTx binding assays on cells were performed at 37°C as previously described ([Feng et al., 2015]), but where non-specific binding of RTx was measured using cells expressing GFP alone. […] Data for binding of RTx to membranes was corrected for non-specific binding, determined using either excess non-radioactive ligand or heat inactivation of the protein, as previously described ([Feng et al., 2015]). […]
# [2] = target: T2, TRPV2 F472S/Q530E (Rattus norvegicus, UniProt Q9WUD2, F472S/Q530E); assay: Two-electrode voltage-clamp in Xenopus oocytes, TRPV2 F472S/Q530E; type: cell-based; details: 100 nM RTx
# T2 construct: expressed in transfected cells; host or cells: Xenopus oocytes (cRNA injection)
# T2 sequence (Q9WUD2 whole entry F472S/Q530E): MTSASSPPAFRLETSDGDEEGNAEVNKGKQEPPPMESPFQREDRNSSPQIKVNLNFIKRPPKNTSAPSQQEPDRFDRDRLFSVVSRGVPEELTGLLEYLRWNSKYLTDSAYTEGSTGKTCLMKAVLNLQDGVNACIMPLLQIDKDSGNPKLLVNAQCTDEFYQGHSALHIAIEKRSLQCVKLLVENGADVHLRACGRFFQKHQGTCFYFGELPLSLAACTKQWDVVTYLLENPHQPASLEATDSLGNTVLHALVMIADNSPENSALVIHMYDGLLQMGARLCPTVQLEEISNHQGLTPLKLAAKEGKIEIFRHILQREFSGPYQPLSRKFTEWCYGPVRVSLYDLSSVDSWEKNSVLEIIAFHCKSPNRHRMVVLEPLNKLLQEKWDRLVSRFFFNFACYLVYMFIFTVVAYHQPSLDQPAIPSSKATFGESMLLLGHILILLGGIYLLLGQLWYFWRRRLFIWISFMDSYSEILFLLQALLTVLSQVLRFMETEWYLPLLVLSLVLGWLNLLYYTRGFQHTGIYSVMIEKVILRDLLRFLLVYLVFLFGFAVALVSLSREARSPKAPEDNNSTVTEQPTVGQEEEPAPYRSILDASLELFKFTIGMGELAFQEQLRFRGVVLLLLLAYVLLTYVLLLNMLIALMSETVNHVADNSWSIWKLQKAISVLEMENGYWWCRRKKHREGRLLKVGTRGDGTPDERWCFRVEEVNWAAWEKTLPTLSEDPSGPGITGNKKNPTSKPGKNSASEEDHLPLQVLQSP
compound,measurement,setting,value
"C=C(C)[C@]12C[C@@H](C)[C@@]34O[C@](Cc5ccccc5)(O[C@@H]1[C@@H]3C=C(COC(=O)Cc1ccc(O)c(OC)c1)C[C@]1(O)C(=O)C(C)=C[C@@H]41)O2 [RTx, resiniferatoxin]",affinity of RTx for TRPV2 QM lower compared to TRPV1,[1],about 30 fold
same,Hill slope (nH),[1]; 37°C,1.7
same,Kd,"[1]; 37°C, read-out: Kd of 3H-RTx binding (Hill fit)",0.018 µM
same,channel activation by RTx,[2],unresponsive
